In publication PMC11587510, “Aromatic Amino Acid Hydroxylases as Off-Targets of Histone Deacetylase Inhibitors” (ACS Chemical Neuroscience, 2024):
Entries after “also recorded” stand apart in the source; their conditions may differ.

Columns and labels:
TPH1 = target: T1, TPH1 (Homo sapiens, UniProt P17752); assay: Steady-state kinetic study of TPH1 inhibition; assay type: biochemical
T1 construct: doubly truncated human TPH1 (ΔNH102-ΔCOOH402); made in house; host or cells: E. coli BL21(DE3)
Experimental: Steady-state kinetic studies were performed to explore the mode of inhibition. […] TPH1 and TH activity assays were performed as indicated above in the absence and presence of three different compound concentrations (TPH1: 0–100 μM; TH: 0–25 μM). Product formation was measured either at a fixed concentration of the cofactor BH4 (200 μM) and varying concentrations of L-Trp (0.937–60 μM) or L-Tyr (3.125–50 μM), respectively, or in the presence of varying concentrations of BH4 (TPH1:12.5–400 μM; TH: 7.4–200 μM) and a fixed concentration of amino acid substrates: 30 μM of L-Trp or 50 μM of L-Tyr, respectively. Kinetic parameters were obtained from the Michaelis–Menten model using nonlinear regression fit [drawing 3] where Vmax is the maximum enzyme velocity and Km the Michaelis–Menten constant.
Lineweaver–Burk plots were obtained by plotting the reciprocal of the rate of the enzyme reaction (1/V) versus the reciprocal substrate concentration (1/[S]) in the absence and presence of compounds.

TH [1] = conditions: proteome profiling study; cited from earlier work
PAH = conditions: proteome profiling study; cited from earlier work
endogenous PAH = target: T2, endogenous PAH (Homo sapiens, UniProt P00439); assay: Cellular thermal shift assay (CETSA) in HepG2 cells; assay type: cell-based; conditions: 50 μM compound, 1 h, vs DMSO
T2 construct: increased melting temperatures (ΔTm) of endogenous PAH; endogenous in cells; host or cells: HepG2
T2 sequence (P00439 1-452): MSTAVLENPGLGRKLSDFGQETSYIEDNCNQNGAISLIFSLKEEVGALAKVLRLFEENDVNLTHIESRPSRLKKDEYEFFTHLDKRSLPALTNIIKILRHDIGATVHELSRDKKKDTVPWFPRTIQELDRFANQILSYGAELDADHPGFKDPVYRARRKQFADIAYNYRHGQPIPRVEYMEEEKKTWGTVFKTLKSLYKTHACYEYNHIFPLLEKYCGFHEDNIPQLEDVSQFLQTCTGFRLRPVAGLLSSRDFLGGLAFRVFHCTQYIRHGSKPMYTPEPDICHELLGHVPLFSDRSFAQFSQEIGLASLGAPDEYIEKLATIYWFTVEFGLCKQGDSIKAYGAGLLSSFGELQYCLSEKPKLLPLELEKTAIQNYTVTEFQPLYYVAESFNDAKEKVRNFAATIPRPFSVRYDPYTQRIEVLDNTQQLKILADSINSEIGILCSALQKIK
Experimental: Then, cells were washed, harvested using trypsin, and pelleted by centrifugation. The pellet was washed twice with PBS supplemented with complete EDTA-free protease inhibitor cocktail (Roche) and divided into 14 aliquots of 35 μL containing 800,000 cells. Cells were then frozen in liquid nitrogen and thawed at 25 °C three times, and each aliquot was heated to a defined temperature by applying a gradient between 39 °C and 69 °C in a thermocycler (peQSTAR, PeQlab; 16-well gradient, 54 °C ± 15 °C). After 3 min incubation, aliquots were snap frozen in liquid nitrogen and thawed at 25 °C. Cell lysates were centrifuged at 20,000 g (4 °C) for 20 min. Supernatants were mixed with 5x loading buffer, heated to 70 °C for 5 min and analyzed by Western blotting. Chemoluminescence signals were recorded with a FusionSL, Vilber Lourmat (peQlab) and quantified using FusionCapt Advance FX7 16.01c software. Calculation of ΔTm was conducted using the Boltzmann sigmoidal model in GraphPad prism 7.01.
Cell lysates used for Western blot analysis were prepared as described in the Methods section (Cellular Thermal Shift Assay). […] Chemoluminescence signals were recorded with an FusionSL, Vilber Lourmat (peQlab) and quantified using FusionCapt Advance FX7 16.01c software.

TH [2] = target: TH (Homo sapiens, UniProt P07101); assay: Steady-state kinetic study of TH inhibition; assay type: biochemical; conditions: for TH Vmax (µmol/(min*mg)): BH4 7.4 – 200 µM / L-Tyr 50 µM
Chain of TH (Homo sapiens, UniProt P07101) (P07101 1-497 isoform P07101-3): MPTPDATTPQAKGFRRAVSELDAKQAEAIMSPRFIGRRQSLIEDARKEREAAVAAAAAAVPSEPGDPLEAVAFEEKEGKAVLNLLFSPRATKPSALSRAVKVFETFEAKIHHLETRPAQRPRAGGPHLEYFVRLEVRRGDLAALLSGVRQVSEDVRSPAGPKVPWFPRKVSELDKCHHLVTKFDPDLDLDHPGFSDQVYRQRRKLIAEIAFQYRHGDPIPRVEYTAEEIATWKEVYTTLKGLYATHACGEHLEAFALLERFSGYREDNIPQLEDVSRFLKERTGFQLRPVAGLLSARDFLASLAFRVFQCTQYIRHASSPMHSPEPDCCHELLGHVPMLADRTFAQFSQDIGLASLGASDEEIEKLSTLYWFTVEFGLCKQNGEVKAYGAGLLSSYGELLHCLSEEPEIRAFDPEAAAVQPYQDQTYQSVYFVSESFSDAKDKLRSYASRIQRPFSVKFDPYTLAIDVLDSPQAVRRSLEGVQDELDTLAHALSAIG
Experimental: Steady-state kinetic studies were performed to explore the mode of inhibition. […] TH: 0-25 μM). […] Kinetic parameters were obtained from the Michaelis-Menten model using nonlinear regression fit [drawing 3] where Vmax is the maximum enzyme velocity and Km the Michaelis-Menten constant. Lineweaver-Burk plots were obtained by plotting the reciprocal of the rate of the enzyme reaction (1/V) versus the reciprocal substrate concentration (1/[S]) in the absence and presence of compounds.

[3] = EG22 5 μM, BH4 12.5–400 μM/L-Trp 30 μM
[4] = EG22 5 μM, L-Trp 0.937–60 μM/BH4 200 μM
[5] = EG22 30 μM, BH4 12.5–400 μM/L-Trp 30 μM
[6] = EG22 30 μM, L-Trp 0.937–60 μM/BH4 200 μM
[7] = EG22 100 μM, BH4 12.5–400 μM/L-Trp 30 μM
[8] = EG22 100 μM, L-Trp 0.937–60 μM/BH4 200 μM

T1 sequence (P17752 102-402): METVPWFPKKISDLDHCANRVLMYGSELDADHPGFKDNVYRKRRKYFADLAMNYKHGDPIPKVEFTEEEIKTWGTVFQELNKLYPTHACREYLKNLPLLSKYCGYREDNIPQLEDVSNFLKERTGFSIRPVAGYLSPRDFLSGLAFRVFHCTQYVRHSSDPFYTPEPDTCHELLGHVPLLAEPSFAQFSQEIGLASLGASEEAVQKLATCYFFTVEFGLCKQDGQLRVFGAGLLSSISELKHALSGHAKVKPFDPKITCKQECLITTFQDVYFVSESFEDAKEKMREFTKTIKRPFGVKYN

SMILES: O=C(NO)c1ccc(Cl)c(C(=O)Nc2ccc(Cl)cc2)c1 [EG22, 4-Chloro-3-(4-chlorophenylcarbamoyl)-N-hydroxybenzamide]
- mode of TPH1 inhibition, varying BH4 and fixed L-Trp (TPH1; EG22 0–100 μM): competitive inhibition; also recorded: mainly competitive
- mode of TPH1 inhibition, varying L-Trp and fixed BH4 (TPH1; EG22 0–100 μM): apparent mixed/uncompetitive inhibition; also recorded: mixed noncompetitive/uncompetitive
- Km (TPH1; [3]): 22.3 ± 6.8 µM
- TPH1 Vmax (μmol/(min·mg)) (TPH1; [3]): 3.4 ± 0.2 µmol/min/mg
- Km (TPH1; [4]): 11.7 ± 1.1 µM
- TPH1 Vmax (μmol/(min·mg)) (TPH1; [4]): 4.4 ± 0.2 µmol/min/mg
- Km (TPH1; [5]): 53.8 ± 11.2 µM
- TPH1 Vmax (μmol/(min·mg)) (TPH1; [5]): 3.0 ± 0.2 µmol/min/mg
- Km (TPH1; [6]): 7.5 ± 1.3 µM
- TPH1 Vmax (μmol/(min·mg)) (TPH1; [6]): 3.0 ± 0.2 µmol/min/mg
- Km (TPH1; [7]): 76.9 ± 12.5 µM
- TPH1 Vmax (μmol/(min·mg)) (TPH1; [7]): 2.8 ± 0.2 µmol/min/mg
- Km (TPH1; [8]): 5.5 ± 0.8 µM
- TPH1 Vmax (μmol/(min·mg)) (TPH1; [8]): 2.4 ± 0.1 µmol/min/mg

SMILES: Cc1[nH]c2ccccc2c1CCNCc1ccc(/C=C/C(=O)NO)cc1 [panobinostat, reference compound]
- IC50 (TH [1]): 3.3 µM
- IC50 (PAH): 0.2 µM
- ΔTm at 50 µM (endogenous PAH): 3.7 °C
- mode of TH inhibition versus the amino acid substrate (TH [2]; panobinostat): mixed noncompetitive/uncompetitive
- mode of TH inhibition toward BH4 (TH [2]; panobinostat 0–25 μM): mixed competitive/noncompetitive inhibition; also recorded: mainly competitive
- TH Vmax (µmol/(min*mg)) (TH [2]; panobinostat 2.5 µM): 1.0 ± 0.1 µmol/min/mg
- TH Vmax (µmol/(min*mg)) (TH [2]; panobinostat 10 µM): 0.32 ± 0.033 µmol/min/mg
- TH Vmax (µmol/(min*mg)) (TH [2]; panobinostat 25 µM): 0.23 ± 0.029 µmol/min/mg
